From patent US9278981B2, “Compounds and compositions for inhibiting the activity of ABL1, ABL2 and BCR-ABL1” (Novartis AG, priority 2012, dated 2016)

Experiments:
ABL1 (64-515) [1] = target: T1, ABL1 (64-515) (Homo sapiens (Human), UniProt P00519); experiment: Radio ABL1 (64-515) assay (radiometric filter-binding); format: biochemical
ABL1 (64-515) [2] = target: T1, ABL1 (64-515); experiment: Caliper ABL1 (64-515) assay (microfluidic mobility shift); format: biochemical

T1 sequence (P00519 64-515): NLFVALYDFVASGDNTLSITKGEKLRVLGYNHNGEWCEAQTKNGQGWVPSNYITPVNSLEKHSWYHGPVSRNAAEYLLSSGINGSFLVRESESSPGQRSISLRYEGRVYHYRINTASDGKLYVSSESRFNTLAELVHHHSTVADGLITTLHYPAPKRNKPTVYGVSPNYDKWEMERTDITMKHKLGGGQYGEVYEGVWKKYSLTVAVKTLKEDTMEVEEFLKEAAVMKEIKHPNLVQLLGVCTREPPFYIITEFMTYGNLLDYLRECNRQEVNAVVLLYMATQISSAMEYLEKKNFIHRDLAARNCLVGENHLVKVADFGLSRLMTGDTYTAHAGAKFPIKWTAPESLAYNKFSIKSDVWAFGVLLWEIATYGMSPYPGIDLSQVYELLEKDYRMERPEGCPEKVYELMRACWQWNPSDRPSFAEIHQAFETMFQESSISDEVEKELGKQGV

IC50 (ABL1 (64-515) [1]) [nM]	IC50 (ABL1 (64-515) [2]) [nM]	Compound
1	0.6	O=C(Nc1ccc(OC(F)(F)Cl)cc1)c1ccc(N2C[C@H](O)[C@@H](O)C2)c(-c2cncnc2)c1 [Example 244, N-(4-(Chlorodifluoromethoxy)phenyl)-4-((3S,4S)-3,4-dihydroxypyrrolidin-1-yl)-3-(pyrimidin-5-yl)benzamide]
4	1.1	Cc1ccc(-c2cc(C(=O)Nc3ccc(OC(F)(F)F)cc3)cnc2N2CC(O)C2)cn1 [Example 127, 2-(3-Hydroxyazetidin-1-yl)-6′-methyl-N-(4-(trifluoromethoxy)phenyl)-[3,3′-bipyridine]-5-carboxamide]
4	1.1	O=C(Nc1ccc(OC(F)(F)Cl)cc1)c1cnc(N2CC[C@@H](O)C2)c(-c2cc(F)cnc2F)c1 [Example 272]
2.3	0.4	CN(CCO)c1ncc(C(=O)Nc2ccc(SC(F)(F)F)cc2)cc1-c1cncc(F)c1 [Example 193, 5′-Fluoro-2-((2-hydroxyethyl)(methyl)amino)-N-(4-((trifluoromethyl)thio)phenyl)-[3,3′-bipyridine]-5-carboxamide]
2.4	4	O=C(Nc1ccc(OC(F)(F)F)cc1)c1cnc(N2CCCOCC2)c(-c2cncnc2)c1 [Example 233]
2	0.5	CCN(CCO)c1ncc(C(=O)Nc2ccc(OC(F)(F)Cl)cc2)cc1-c1cncc(F)c1 [Example 183, N-(4-(Chlorodifluoromethoxy)phenyl)-2-(ethyl(2-hydroxyethyl)amino)-5′-fluoro-[3,3′-bipyridine]-5-carboxamide]
2	1.3	CN(CCO)c1ncc(C(=O)Nc2ccc(SC(F)(F)F)cc2)cc1-c1cncnc1 [Example 192, 6-((2-Hydroxyethyl)(methyl)amino)-5-(pyrimidin-5-yl)-N-(4-((trifluoromethyl)thio)phenyl)nicotinamide]
4	6	CC(C)(O)c1cc(F)cc(-c2cc(C(=O)Nc3ccc(OC(F)(F)F)cc3)cnc2N2CC[C@@H](O)C2)c1 [Example 60, (R)-5-(3-Fluoro-5-(2-hydroxypropan-2-yl)phenyl)-6-(3-hydroxypyrrolidin-1-yl)-N-(4-(trifluoromethoxy)phenyl)nicotinamide]
1	2.4	O=C(Nc1ccc(OC(F)(F)F)cc1)c1cnc(N2CCNC3(CC3)C2)c(-c2cncnc2)c1 [Example 229]
13	2.8	O=C(Nc1ccc(OC(F)(F)F)cc1)c1ccc(N2C[C@H](O)[C@@H](O)C2)c(-c2cccnc2)c1 [Example 8, 4-((3S,4S)-3,4-Dihydroxypyrrolidin-1-yl)-3-(pyridin-3-yl)-N-(4-(trifluoromethoxy)phenyl)benzamide]
< 3	0.4	O=C(Nc1ccc(OC(F)(F)F)cc1)c1cnc(N2C[C@H](O)[C@@H](O)C2)c(-c2cccnc2)c1 [Example 70, 2-((3S,4S)-3,4-Dihydroxypyrrolidin-1-yl)-N-(4-(trifluoromethoxy)phenyl)-[3,3′-bipyridine]-5-carboxamide]
4	0.2	N#Cc1cncc(-c2cc(C(=O)Nc3ccc(SC(F)(F)F)cc3)cnc2N2CC[C@@H](O)C2)c1 [Example 188, (R)-5′-Cyano-2-(3-hydroxypyrrolidin-1-yl)-N-(4-((trifluoromethyl)thio)phenyl)-[3,3′-bipyridine]-5-carboxamide]
3	1.1	O=C(Nc1ccc(OC(F)(F)F)cc1)c1cnc(N2CC[C@@H](O)C2)c(-c2cncc(Cl)c2)c1 [Example 50, (R)-5′-Chloro-2-(3-hydroxypyrrolidin-1-yl)-N-(4-(trifluoromethoxy)phenyl)-[3,3′-bipyridine]-5-carboxamide]
< 3	0.5	O=C(Nc1ccc(C(F)(F)C(F)(F)F)cc1)c1cnc(N2CC[C@@H](O)C2)c(-c2cncc(F)c2)c1 [Example 209, (R)-5′-Fluoro-2-(3-hydroxypyrrolidin-1-yl)-N-(4-(perfluoroethyl)phenyl)-[3,3′-bipyridine]-5-carboxamide]
